Experimental data: US8399214B2 (Evonik Degussa GmbH, priority 2005, dated 2013)

Key:
[1] = test system: C. glutamicum OM174 (ΔmetF, ΔmetB, ΔmetY); settings: DMDS 0.2%, XAD4, 60 hours at 30° C.
Description: A test tube experiment was performed with M2014 derivatives that contain different combinations of deletions of metY, metB, and metF. […] The inoculum was approximately 5×10^3 cells per tube. Cells were grown at 30° C. in a platform shaker for 60 hours, and cell densities were measured at OD600.

[2] = test system: E. coli CGSC 3592 (metF64); assay: Growth on methionine free agar with DMDS in a centre well; format: cell-based; settings: 50 microliters DMDS in well, 30° C.
Description: The selection was for resistance to kanamycin sulfate at 25 mg/L on rich medium […] agar).

With `CSSC` [DMDS, dimethyl disulfide] the OD600 [1] was 0.0, the “growth on methionine free agar with DMDS” value ([2]; CGSC 3592 transformed with empty vector pCLIK) was “neither strain transformed with empty vector pCLIK grew” and the “growth on methionine free agar with DMDS” value ([2]; CGSC 3592 transformed with pH309 or pH357 (metY)) was “grew on the plates”.
